Data as given in patent publication US6299861A, “Ipratropium bromide enantiomer with prolonged duration of effect” (Boehringer Ingelheim KG, priority 1995, dated 2001).

Tested on: acetylcholine-induced bronchospasm
Assay: Inhibition of acetylcholine-induced bronchospasm in the anaesthetised dog after administration by inhalation
Settings: aerosol, FIG. 1; for peak inhibition of acetylcholine-induced bronchospasm: 5 μg L-(-)-enantiomer (curve B) or 10 μg racemate (curve A); for time at which peak inhibition of bronchospasm is reached / time until inhibition of bronchospasm has fallen back to initial/starting level: 5 μg L-(-)-enantiomer or 10 μg racemate
Procedure: 5 μg of the pure L-(-)-enantiomer and, accordingly, 10 μg of the racemate were administered.

CC(C)[N+]1(C)C2CCC1CC(OC(=O)C(CO)c1ccccc1)C2 (single isomer, unassigned) [BIIH 150 BR, (endo, syn)-(-)-3-(3-hydroxy-l-oxo-2-phenylpropoxy)-8-methyl-8-(1-methylethyl)-8-azoniabicyclo [3,2,1]octane]
peak inhibition of acetylcholine-induced bronchospasm: 60%
time at which peak inhibition of bronchospasm is reached: about 10 minutes
time until inhibition of bronchospasm has fallen back to initial/starting level: 180 min

CC(C)[N+]1(C)C2CCC1CC(OC(=O)C(CO)c1ccccc1)C2 (stereo not drawn) [Ipratropium bromide]
peak inhibition of acetylcholine-induced bronchospasm: about 55%
time at which peak inhibition of bronchospasm is reached: about 10 minutes
time until inhibition of bronchospasm has fallen back to initial/starting level: 60 min
